Square brackets hold non-standard residues; d marks the D form. Ends that are not written are not given here. pT = C[C@@H](OP(=O)(O)O)[C@H](N)C(=O)O; pS = N[C@@H](COP(=O)(O)O)C(=O)O
Assays:
[1] = tested on: CD8^+ T cells (PBMCs); test: Intracellular cytokine staining (ICS) of PBMCs after 7 days of stimulation with MHC-I-pP (healthy donors, HH patients); format: cell-based, human; conditions: for Reactive CD8^+ T cell population, HH2: HH patient HH2; for Reactive CD8^+ T cell population, HH3: HH patient HH3; for Reactive CD8^+ T cell population, HH8: HH patient HH8; for Reactive CD8^+ T cell population, HH11: HH patient HH11
Method: From this, CD8^+ T cell responses against newly identified MHC class I-associated phosphopeptides in healthy individuals and patients with chronic liver disease were investigated. Twenty-one of the newly identified HCC-associated HLA-A*0201-restricted phosphopeptides were selected (see Table 17) for further immunological testing in HLA-A*0201 positive patients. MHC-I-pP-specific cytotoxic CD8^+ T cell responses (ppCTL) were assessed using intracellular cytokine staining (ICS) and several cytokines and surface markers were assessed in parallel. After 7 days of stimulation with the respective MHC-I-pP and no other cytokines, CD3- and CD8-expressing T cells were stained for at least two different cytokines (IFN-γ, TNF-α) and when required CD107a expression as a marker for their cytotoxic potential.
First, peripheral blood mononuclear cells (PBMCs) from healthy donors and patients with hereditary hemochromatosis (HH) were analyzed. HH is a chronic liver disease characterized by excessive intestinal absorption of dietary iron resulting in a pathological deposition of iron in the liver. PBMCs or lymphocytes from liver tissue were extracted and specifically stimulated with (phospho-) peptides for 7 days before intracellular cytokine staining (ICS). Doublets and dead cells, using a fixable viability dye, were excluded. Lymphocytes were gated on CD3^+ and CD8^+ double positive cells and were analysed for expression of IFNγ, TNFα-, and CD107a.

[2] = tested on: unexpanded lymphocyte cultures (CD8^+ T cells); test: ICS for MHC-I-pP reactivity of lymphocyte cultures without expansion (Table 23, No Expansion); conditions: HH6
[3] = tested on: expanded lymphocyte cultures from deceased donor livers, cirrhotic livers and HCC; test: ICS for MHC-I-pP reactivity of liver-derived lymphocyte cultures after phosphopeptide-specific expansion; format: cell-based, human; conditions: for ppCTL response, Deceased Donor Liver Do 2 / ppCTL response, Deceased Donor Liver Do 3 / ppCTL response, Deceased Donor Liver Do 4 / ppCTL response, Deceased Donor Liver Do 6 / ppCTL response, End-stage Liver Cirrhosis IHL 11 / ppCTL response, End-stage Liver Cirrhosis IHL 13 / ppCTL response, HCC Distal HCC 1 / ppCTL response, HCC Tumor HCC 1 / ppCTL response, HCC Distal HCC 4: pP-specifically expanded culture; for ppCTL response, HCC Distal HCC 1: HCC 1 Distal; for ppCTL response, HCC Tumor HCC 1: HCC 1 Tumor; for ppCTL response, HCC Distal HCC 4: HCC 4 Distal

Substance: RQDsTPGKVFL: NR2C1 phosphopeptide, HLA-A*0201 (RQD[pS]TPGKVFL; listed as Homo sapiens)
- Reactive CD8^+ T cell population, HH2 [1]: 0 (<0.25% reactive CD8^-+ T cells)
- Reactive CD8^+ T cell population, HH3 [1]: 0 (<0.25% reactive CD8^-+ T cells)
- Reactive CD8^+ T cell population, HH8 [1]: 0 (<0.25% reactive CD8^-+ T cells)
- Reactive CD8^+ T cell population, HH11 [1]: 0 (<0.25% reactive CD8^-+ T cells)
- Reactive CD8^+ T cells, No Expansion, HH6 [2]: 2 (2.5-5.0% reactive CD8^-+ T cells)
- Reactive CD8^+ T cells, pP-specific Expansion, Do2 [3]: 0 (<0.25% reactive CD8^-+ T cells)
- Reactive CD8^+ T cells, pP-specific Expansion, Do4 [3]: 0 (<0.25% reactive CD8^-+ T cells)
- Reactive CD8^+ T cells, pP-specific Expansion, HH6 [3]: 1 (0.25-2.5% reactive CD8^-+ T cells)
- ppCTL response, Deceased Donor Liver Do 2 [3]: 1 (0.25-2.5% reactive CD8-+ T cells)
- ppCTL response, Deceased Donor Liver Do 3 [3]: 0 (<0.25% reactive CD8-+ T cells)
- ppCTL response, Deceased Donor Liver Do 4 [3]: 0 (<0.25% reactive CD8-+ T cells)
- ppCTL response, Deceased Donor Liver Do 6 [3]: 0 (<0.25% reactive CD8-+ T cells)
- ppCTL response, End-stage Liver Cirrhosis IHL 11 [3]: 0 (<0.25% reactive CD8-+ T cells)
- ppCTL response, End-stage Liver Cirrhosis IHL 13 [3]: 0 (<0.25% reactive CD8-+ T cells)
- ppCTL response, HCC Distal HCC 1 [3]: 0 (<0.25% reactive CD8-+ T cells)
- ppCTL response, HCC Tumor HCC 1 [3]: 0 (<0.25% reactive CD8-+ T cells)
- ppCTL response, HCC Distal HCC 4 [3]: 0 (<0.25% reactive CD8-+ T cells)

Substance: RQAsIELPSMAV: LSP1 phosphopeptide, HLA-A*0201 (RQA[pS]IELPSMAV; listed as Homo sapiens)
- Reactive CD8^+ T cell population, HH2 [1]: 0 (<0.25% reactive CD8^-+ T cells)
- Reactive CD8^+ T cell population, HH3 [1]: 0 (<0.25% reactive CD8^-+ T cells)
- Reactive CD8^+ T cell population, HH8 [1]: 0 (<0.25% reactive CD8^-+ T cells)
- Reactive CD8^+ T cell population, HH11 [1]: 0 (<0.25% reactive CD8^-+ T cells)
- Reactive CD8^+ T cells, No Expansion, HH6 [2]: 1 (0.25-2.5% reactive CD8^-+ T cells)
- Reactive CD8^+ T cells, pP-specific Expansion, Do2 [3]: 0 (<0.25% reactive CD8^-+ T cells)
- Reactive CD8^+ T cells, pP-specific Expansion, Do4 [3]: 0 (<0.25% reactive CD8^-+ T cells)
- Reactive CD8^+ T cells, pP-specific Expansion, HH6 [3]: 0 (<0.25% reactive CD8^-+ T cells)
- ppCTL response, Deceased Donor Liver Do 2 [3]: 0 (<0.25% reactive CD8-+ T cells)
- ppCTL response, Deceased Donor Liver Do 3 [3]: 0 (<0.25% reactive CD8-+ T cells)
- ppCTL response, Deceased Donor Liver Do 4 [3]: 0 (<0.25% reactive CD8-+ T cells)
- ppCTL response, Deceased Donor Liver Do 6 [3]: 1 (0.25-2.5% reactive CD8-+ T cells)
- ppCTL response, End-stage Liver Cirrhosis IHL 11 [3]: 0 (<0.25% reactive CD8-+ T cells)
- ppCTL response, End-stage Liver Cirrhosis IHL 13 [3]: 0 (<0.25% reactive CD8-+ T cells)
- ppCTL response, HCC Distal HCC 1 [3]: 0 (<0.25% reactive CD8-+ T cells)
- ppCTL response, HCC Tumor HCC 1 [3]: 0 (<0.25% reactive CD8-+ T cells)
- ppCTL response, HCC Distal HCC 4 [3]: 0 (<0.25% reactive CD8-+ T cells)

Substance: RQLsSGVSEI: HSPB1 phosphopeptide, HLA-A*0201 (RQL[pS]SGVSEI; listed as Homo sapiens)
- Reactive CD8^+ T cell population, HH2 [1]: 0 (<0.25% reactive CD8^-+ T cells)
- Reactive CD8^+ T cell population, HH3 [1]: 0 (<0.25% reactive CD8^-+ T cells)
- Reactive CD8^+ T cell population, HH8 [1]: 0 (<0.25% reactive CD8^-+ T cells)
- Reactive CD8^+ T cell population, HH11 [1]: 0 (<0.25% reactive CD8^-+ T cells)
- Reactive CD8^+ T cells, No Expansion, HH6 [2]: 2 (2.5-5.0% reactive CD8^-+ T cells)
- Reactive CD8^+ T cells, pP-specific Expansion, Do2 [3]: 0 (<0.25% reactive CD8^-+ T cells)
- Reactive CD8^+ T cells, pP-specific Expansion, Do4 [3]: 0 (<0.25% reactive CD8^-+ T cells)
- Reactive CD8^+ T cells, pP-specific Expansion, HH6 [3]: 0 (<0.25% reactive CD8^-+ T cells)
- ppCTL response, Deceased Donor Liver Do 2 [3]: 0 (<0.25% reactive CD8-+ T cells)
- ppCTL response, Deceased Donor Liver Do 3 [3]: 0 (<0.25% reactive CD8-+ T cells)
- ppCTL response, Deceased Donor Liver Do 4 [3]: 0 (<0.25% reactive CD8-+ T cells)
- ppCTL response, Deceased Donor Liver Do 6 [3]: 0 (<0.25% reactive CD8-+ T cells)
- ppCTL response, End-stage Liver Cirrhosis IHL 11 [3]: 0 (<0.25% reactive CD8-+ T cells)
- ppCTL response, End-stage Liver Cirrhosis IHL 13 [3]: 0 (<0.25% reactive CD8-+ T cells)
- ppCTL response, HCC Distal HCC 1 [3]: 0 (<0.25% reactive CD8-+ T cells)
- ppCTL response, HCC Tumor HCC 1 [3]: 0 (<0.25% reactive CD8-+ T cells)
- ppCTL response, HCC Distal HCC 4 [3]: 0 (<0.25% reactive CD8-+ T cells)

Substance: KLFPDtPLAL: ILF3 phosphopeptide, HLA-A*0201 (KLFPD[pT]PLAL; listed as Homo sapiens)
- Reactive CD8^+ T cell population, HH2 [1]: 0 (<0.25% reactive CD8^-+ T cells)
- Reactive CD8^+ T cell population, HH3 [1]: 0 (<0.25% reactive CD8^-+ T cells)
- Reactive CD8^+ T cell population, HH8 [1]: 0 (<0.25% reactive CD8^-+ T cells)
- Reactive CD8^+ T cell population, HH11 [1]: 0 (<0.25% reactive CD8^-+ T cells)
- Reactive CD8^+ T cells, No Expansion, HH6 [2]: 0 (<0.25% reactive CD8^-+ T cells)
- Reactive CD8^+ T cells, pP-specific Expansion, Do2 [3]: 0 (<0.25% reactive CD8^-+ T cells)
- Reactive CD8^+ T cells, pP-specific Expansion, Do4 [3]: 0 (<0.25% reactive CD8^-+ T cells)
- Reactive CD8^+ T cells, pP-specific Expansion, HH6 [3]: 0 (<0.25% reactive CD8^-+ T cells)
- ppCTL response, Deceased Donor Liver Do 2 [3]: 0 (<0.25% reactive CD8-+ T cells)
- ppCTL response, Deceased Donor Liver Do 3 [3]: 0 (<0.25% reactive CD8-+ T cells)
- ppCTL response, Deceased Donor Liver Do 4 [3]: 0 (<0.25% reactive CD8-+ T cells)
- ppCTL response, Deceased Donor Liver Do 6 [3]: 0 (<0.25% reactive CD8-+ T cells)
- ppCTL response, End-stage Liver Cirrhosis IHL 11 [3]: 0 (<0.25% reactive CD8-+ T cells)
- ppCTL response, End-stage Liver Cirrhosis IHL 13 [3]: 0 (<0.25% reactive CD8-+ T cells)
- ppCTL response, HCC Distal HCC 1 [3]: 0 (<0.25% reactive CD8-+ T cells)
- ppCTL response, HCC Tumor HCC 1 [3]: 0 (<0.25% reactive CD8-+ T cells)
- ppCTL response, HCC Distal HCC 4 [3]: 0 (<0.25% reactive CD8-+ T cells)

Substance: RLFsKELRC: TAF13 phosphopeptide, HLA-A*0201 (RLF[pS]KELRC; listed as Homo sapiens)
- Reactive CD8^+ T cell population, HH2 [1]: 2 (2.5-5.0% reactive CD8^-+ T cells)
- Reactive CD8^+ T cell population, HH3 [1]: 0 (<0.25% reactive CD8^-+ T cells)
- Reactive CD8^+ T cell population, HH8 [1]: 0 (<0.25% reactive CD8^-+ T cells)
- Reactive CD8^+ T cells, No Expansion, HH6 [2]: 0 (<0.25% reactive CD8^-+ T cells)
- Reactive CD8^+ T cells, pP-specific Expansion, Do2 [3]: 0 (<0.25% reactive CD8^-+ T cells)
- Reactive CD8^+ T cells, pP-specific Expansion, Do4 [3]: 0 (<0.25% reactive CD8^-+ T cells)
- Reactive CD8^+ T cells, pP-specific Expansion, HH6 [3]: 0 (<0.25% reactive CD8^-+ T cells)
- ppCTL response, Deceased Donor Liver Do 2 [3]: 1 (0.25-2.5% reactive CD8-+ T cells)
- ppCTL response, Deceased Donor Liver Do 3 [3]: 0 (<0.25% reactive CD8-+ T cells)
- ppCTL response, Deceased Donor Liver Do 4 [3]: 0 (<0.25% reactive CD8-+ T cells)
- ppCTL response, Deceased Donor Liver Do 6 [3]: 0 (<0.25% reactive CD8-+ T cells)
- ppCTL response, End-stage Liver Cirrhosis IHL 11 [3]: 0 (<0.25% reactive CD8-+ T cells)
- ppCTL response, End-stage Liver Cirrhosis IHL 13 [3]: 0 (<0.25% reactive CD8-+ T cells)
- ppCTL response, HCC Distal HCC 1 [3]: 0 (<0.25% reactive CD8-+ T cells)
- ppCTL response, HCC Tumor HCC 1 [3]: 0 (<0.25% reactive CD8-+ T cells)
- ppCTL response, HCC Distal HCC 4 [3]: 0 (<0.25% reactive CD8-+ T cells)

Reference: US20190374627A1, “TARGET PEPTIDES FOR CANCER THERAPY AND DIAGNOSTICS” (priority 2016, published 2019)
